Assay results published in patent US20240335427A1, “SMALL MOLECULE INHIBITION OF DEUBIQUITINATING ENZYME JOSEPHIN DOMAIN CONTAINING 1 (JOSD1) AS A TARGETED THERAPY FOR LEUKEMIAS WITH MUTANT JANUS KINASE 2 (JAK2)” (DANA-FARBER CANCER INSTITUTE, INC., priority 2021, published 2024).

Key:
JOSD1 [1] = target: T1, JOSD1 (Homo sapiens (Human), UniProt Q15040); assay: In vitro JOSD1 activity assay (biochemical IC50, purified enzyme)
Protocol: (§3) In vitro JOSD1 activity assay & Ubiquitin-7-amido-4-methylcoumarin (AMC) assay. In vitro JOSD1 activity assay was carried out with Ubiquitin-AMC assay. […] Recombinant JOSD1 was tested for activity in a Ubiquitin-AMC assay in the presence or absence of inhibitors. […] The reaction was incubated for 6 hours at room temperature prior to the addition of 2 μM Ubiquitin-AMC (Boston Biochem) substrate. The initial rate of the reaction was measured by collecting fluorescence data at one-minute intervals over a 30-minute period using a Clariostar® fluorescence plate reader at excitation and emission wavelengths of 345 and 445 nm, respectively. The calculated initial rate values were plotted against inhibitor concentrations to determine IC50 values.
(§4) In vitro JOSD1 activity assay. Recombinant full-length JOSD1 was tested for activity in a Ubiquitin-AMC assay in the presence or absence or inhibitors. For this assay, 10 nM JOSD1 was pre-incubated with different concentrations of inhibitors or DMSO as a control in 50 mM Tris 8.0, 0.5 mM EDTA, 10 mM ovalbumin, 5 mM DTT. The reaction was incubated for 6 h at room temperature prior to the addition of 2 mM Ubiquitin-AMC (Boston Biochem) substrate. The initial rate of the reaction was measured by collecting fluorescence data at one-minute intervals over a 30-minute period using a CLARIOstar® fluorescence plate reader at excitation and emission wavelengths of 345 and 445 nm, respectively. The calculated initial rate values were plotted against inhibitor concentrations to determine IC50 values.
(§5) JOSD1 biochemical inhibition was investigated for the analogs shown using the fluorescent substrate ubiquitin-rhodamine against purified enzyme in a continuous kinetic assay.

JAK2-V617F [2] = assay: JAK2 protein level by western blotting in Ba/F3-EPOR-JAK2-V617F cells; type: cell-based
Protocol: Immunoblotting and Immunoprecipitation. Protein lysate preparation, immunoblotting, and immunoprecipitation were carried out as previously described (Lamberto, et al., 2017 Cell Chem Biol., 224(12):1490-500 e11). Briefly, 0.7×10^6 cells were treated with compounds 1 and 2 at 0, 5, 10, […], cells were collected, and lysate was prepared in radioimmunoprecipitation assay (RIPA) buffer, JAK family and downstream signaling protein levels were detected by western blotting with the indicated antibodies. For immunoprecipitation, 1 mg protein for each sample was prepared and 1 μg antibody was used, immunoglobulin G (IgG) was added in same amount as nontargeting control.
(§1) A broader range of compounds 1 and 2, including concentrations lower than 1 μM, were also tested on growth of EPOR-JAK2-V617F-expressing Ba/F3 cells and parental Ba/F3 EpoR+ cells (24 hours treatment on 4000 cells per well) (FIG. 18-FIG. 18B). Cell growth inhibition (FIG. 17A-FIG. 17B, FIG. 18A-FIG. 18B) was tested on Ba/F3-EPOR-JAK2-V617F (-IL-3/WEHI) and parental Ba/F3-EPOR cells (+IL-3/WEHI) plated at 2000 cells per well, at 1, 3 and 10 μM for 24 hours using the Promega CellTiter Glo® assay.

[3] = system: native DUBs (UCHL1, USP30 and JOSD1); assay: Competitive activity-based protein profiling with quantitative mass spectrometry in HEK-293T lysates; type: binding; settings: block of labeling by DUB activity-based probes
Protocol: Activity Based Protein Profiling (ABPP) assay. DUB targets were investigated using competitive ABPP with quantitative mass spectrometry. The ability to block labeling of 50 DUBs by ubiquitin-based DUB activity-based probes was quantitatively measured in HEK-293T lysates.
DUB ABPP of Compound Targets. Activity-based probes biotin-Ub-PA (UbiQ-076) and biotin-Ub-VME (UbiQ-054) were obtained from UbiQ Bio. DUB Activity based protein profiling was performed using conditions modified from those in Schauer, et al., 2020, Scientific Reports, 10:1-15, based on work by Lawson, et al., 2017 Oncotarget, 8:51296-316. HEK 293T cells were lysed (50 mM Tris pH 8.0, 150 mM NaCl, 5 mM MgC2, 0.5 mM EDTA, 0.5% NP-40, 10% glycerol, 1 mM tris(2-carboxyethyl)phosphine (TCEP), protease and phosphatase inhibitors) and the lysate was clarified by centrifugation, then diluted to 10 mg/mL. 200 μL aliquots were incubated at the indicated compound concentrations or DMSO for 5 hours at room temperature, final DMSO concentration 0.5%. Afterwards, the treated lysates were incubated with 1 μM each of Biotin-Ub-PA and Biotin-Ub-VME for 90 minutes at room temperature. […]
Specifically, quantitative mass spectrometry was utilized to measure the ability of compounds 1 and 2 to block labeling of […] native DUBs by ubiquitin-based DUB activity-based probes in HEK-293T lysates. […]

normal bone marrow cells = assay: Normal bone marrow colony assay; type: cell-based, human
Protocol: Normal human bone marrow was also analyzed in a colony assay: 24-well plates seeded with 200 cells/well in MethoCult™ H4434 Classic (methylcellulose-based medium with recombinant cytokines for human cells) ([…] Technologies™ INC., Vancouver, British Columbia, Canada). The plates contained targeted JOSD1 inhibitors at the indicated concentrations. Plates were incubated at 37° C. in 5% CO2 for >1 week, and then myeloid and erythroid colonies (early progenitors with erythroid and myeloid components: colony-forming unit for granulocytes and macrophages (CFU-GM), CFU-erythroid (E), BFU-E, and CFU-granulocyte, erythroid, macrophage, megakaryocyte (GEMM) were counted on an inverted microscope.

wt JAK2 = wt JAK2 (Mus musculus (Mouse), UniProt Q62120); assay: JAK2 protein level by western blotting in Ba/F3-EPOR-JAK2 wt cells; type: cell-based
Protocol: (§2) Immunoblotting and Immunoprecipitation. Protein lysate preparation, immunoblotting, and immunoprecipitation were carried out as previously described (Lamberto, et al., 2017 Cell Chem Biol., 224(12):1490-500 e11). Briefly, 0.7×10^6 cells were treated with compounds 1 and 2 at 0, 5, 10, and 20 μM for 16 or 24 hours, cells were collected, and lysate was prepared in radioimmunoprecipitation assay (RIPA) buffer, JAK family and downstream signaling protein levels were detected by western blotting with the indicated antibodies. For immunoprecipitation, 1 mg protein for each sample was prepared and 1 μg antibody was used, immunoglobulin G (IgG) was added in same amount as nontargeting control.

JAK2-V617F [4] = target: JAK2-V617F (Homo sapiens (Human), UniProt O60674, V617F); assay: JAK2-V617F protein loss in human AML cell lines by western blotting; type: cell-based; settings: HEL cells, co-treatment with cycloheximide
Protocol: as §2

USP30 = USP30 (Homo sapiens (Human), UniProt Q70CQ3); assay: USP30 biochemical IC50
Chain of USP30 (Q70CQ3 whole entry, species assumed): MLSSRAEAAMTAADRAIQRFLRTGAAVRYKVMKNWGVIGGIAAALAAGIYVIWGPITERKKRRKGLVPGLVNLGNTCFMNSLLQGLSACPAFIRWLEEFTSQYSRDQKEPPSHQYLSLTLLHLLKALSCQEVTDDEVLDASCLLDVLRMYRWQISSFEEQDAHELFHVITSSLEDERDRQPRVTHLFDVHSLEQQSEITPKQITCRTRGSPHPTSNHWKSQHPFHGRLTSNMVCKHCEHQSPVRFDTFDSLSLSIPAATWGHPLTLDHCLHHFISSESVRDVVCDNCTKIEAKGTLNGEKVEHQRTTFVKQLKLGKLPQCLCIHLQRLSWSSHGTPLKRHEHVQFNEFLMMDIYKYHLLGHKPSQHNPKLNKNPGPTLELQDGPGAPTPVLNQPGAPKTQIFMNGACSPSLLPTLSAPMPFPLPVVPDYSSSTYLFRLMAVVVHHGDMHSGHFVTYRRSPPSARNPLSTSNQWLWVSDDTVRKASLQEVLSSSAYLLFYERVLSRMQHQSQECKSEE

[5] = system: Ba/F3-EPOR-JAK2-V617F-expressing cells; assay: Ba/F3 cell proliferation (CellTiter Glo); type: cell-based, murine
Protocol: Proliferation and Drug Combination Studies. Proliferation and drug combination studies were carried out as previously described (Yang, et al., 2020, British Journal of Cancer, 122:1175-84).
As toxicities can result from small molecule targeting of both oncogenic mutated JAK2 as well as its non-mutated counterpart, a chemical genetics screen was designed and performed of a DUB-focused small molecule inhibitor library with the goal of leveraging crosstalk between phosphorylation and ubiquitination to identify DUB inhibitors able to selectively degrade mutant JAK2 while sparing wt JAK2. Of relevance, activated FLT3 can be selectively degraded over the wt enzyme by inhibition of the DUB, USP10, (Wernig, et al., 2008, Blood, 111(7):3751-9) and similar to FLT3, JAK2 is ubiquitinated in an activation-dependent manner. In brief, the library of known and novel DUB inhibitors was evaluated for ability to suppress growth of Ba/F3-EPOR-JAK2-V617F-expressing cells selectively over Ba/F3-EPOR cells growing in the presence of interleukin-3.
as §1

HEL cells = assay: HEL cell growth inhibition by fresh or aged drug stocks (stability); type: cell-based, human; settings: stocks stored two to three years at −20° Celsius; 2.5, 5, 10, 20 μM, 24 hours
Protocol: Fresh or aged stocks of compounds 1 and 2 were tested for the ability to inhibit HEL cell growth at 2.5, 5, 10, and 20 μM of each drug after 24 hours (FIG. 19A-FIG. 19B).
The CellTiter Glo® assay was performed using HEL cells seeded at 1000 cells/well of a 96-well plate. The “fresh” drug stocks were obtained frozen (stored at −20° Celsius) within days of executing the proliferation experiment for which results are shown. The “aged” drug stocks were obtained from freeze-thawed stocks serially diluted and stored at −20° Celsius in the laboratory. The “aged” stocks were stored between at least two years to three years at −20° Celsius with little to no freeze-thaw cycles prior to execution of the proliferation experiment for which results are shown. “Aged” stocks may be stored for several years (e.g., at least one year, at least two years, at least three years, at least four years or more) at −20° Celsius prior to use.

UCHL1 = UCHL1 (Homo sapiens (Human), UniProt P09936); assay: UCHL1 biochemical inhibition (ubiquitin hydrolase activity, purified enzyme)
Chain of UCHL1 (P09936 whole entry, species assumed): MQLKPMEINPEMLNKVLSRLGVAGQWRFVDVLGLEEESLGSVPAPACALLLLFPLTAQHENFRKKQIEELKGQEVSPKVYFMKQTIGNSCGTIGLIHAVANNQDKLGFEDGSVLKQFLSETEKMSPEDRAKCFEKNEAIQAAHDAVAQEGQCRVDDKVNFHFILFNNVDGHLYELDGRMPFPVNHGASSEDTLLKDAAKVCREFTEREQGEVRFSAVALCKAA

JOSD1 [6] = target: T1, JOSD1; assay: biochemical
Protocol: as §3, §4, §5

JOSD1 IC50 (range in words) (JOSD1 [1]) | normal bone marrow colony formation (normal bone marrow cells; 5 μM or higher) | normal bone marrow colony formation (normal bone marrow cells; concentrations up to 2.5 μM) | JAK2 levels in wt cells (wt JAK2) | JAK2-V617F protein half-life (JAK2-V617F [4]) | USP30 biochemical IC50 (range in words) (USP30) | UCHL1 biochemical IC50 (range in words) (UCHL1) | IC50 (JOSD1 [6]) [nM] | SMILES | JAK2 degradation, independent western blotting (JAK2-V617F [2]; 18 hours, 10 μM compound 1 or 5 μM compound 2) | JAK2-V617F protein level (JAK2-V617F [2]; Ba/F3-EPOR-JAK2-V617F-expressing cells) | target engagement of UCHL1, USP30 and JOSD1 [3] | killing of Ba/F3-EPOR-JAK2-V617F cells compared to wt JAK2-expressing parental Ba/F3 cells [5] | sensitivity compared to Ba/F3 cells overexpressing other oncogenes [5] | cell growth inhibition ([5]; 1, 3 and 10 μM, 24 hours, independent experiments) | stability: growth inhibition by aged stocks versus fresh stocks (HEL cells)
several hundred | significantly impaired | colonies were able to form | little to no impact on JAK2 levels | shorten JAK2-V617F protein half-life | several hundred | several hundred | – | Cc1noc(C)c1-c1ccc2nc(NC(=O)[C@H]3CCN(C#N)C3)sc2c1 [Compound 1, (S)-1-cyano-N-(6-(3,5-dimethylisoxazol-4-yl)benzo[d]thiazol-2-yl)pyrrolidine-3-carboxamide] | degradation of JAK2 | decreases in JAK2-V617F protein | dose-dependent target engagement | selective killing | among the highest sensitivity | inhibit growth | comparable cell growth inhibition
– | – | – | – | – | – | – | > 100 | CCS(=O)(=O)N1CCN(c2nc3cccc(-c4c(C)noc4C)c3s2)C(=O)C1 [Compound 66] | – | – | – | – | – | – | –
